Results taken from patent publication US12281149B2, “Modulators of G-protein coupled receptors” (priority 2021, dated 2025).
*1 amine or outer side, *2 acyl side, *3 side chain or, on linkers, in order; H or OH if unused. Where a SMILES comes first, the peptide text is derived from it. Side-chain parts run from the residue outwards. [ ]: non-standard residue; d: D form. The star is where a group is joined. Isobutyryl(2-(3-CN-5-F-Ph)) = CC(C)(C(=O)*)c1cc(F)cc(C#N)c1; C20 diacid = O=C(O)CCCCCCCCCCCCCCCCCCC(=O)*; αMePhe(2-F) = C[C@](N)(Cc1ccccc1F)C(=O)O; γGlu = O=C(O)[C@H](CCC(=O)[*:2])N[*:1]; 2Thenoyl(5-Cl) = O=C(c1ccc(Cl)s1)*; X40 = CC(C)(C(=O)*)n1cc(Cl)cn1; X60 = O=C(C1(c2cccnc2)CCCC1)*; Ac4c = NC1(C(=O)O)CCC1; AEEA = NCCOCCOCC(=O)O; Aib = CC(C)(N)C(=O)O; GABA = NCCCC(=O)O; βAla = NCCC(=O)O

Experiments:
GLP-1 receptor = GLP-1 receptor (Homo sapiens, UniProt P43220); test: HitHunter cAMP assay, GLP-1 receptor; format: cell-based; conditions: CHO cells, cAMP; normalized to maximum signal from GLP-1 (high) and DMSO (low); read-out: Emax GLP-1R
GLP-1 receptor, sequence (P43220 24-463): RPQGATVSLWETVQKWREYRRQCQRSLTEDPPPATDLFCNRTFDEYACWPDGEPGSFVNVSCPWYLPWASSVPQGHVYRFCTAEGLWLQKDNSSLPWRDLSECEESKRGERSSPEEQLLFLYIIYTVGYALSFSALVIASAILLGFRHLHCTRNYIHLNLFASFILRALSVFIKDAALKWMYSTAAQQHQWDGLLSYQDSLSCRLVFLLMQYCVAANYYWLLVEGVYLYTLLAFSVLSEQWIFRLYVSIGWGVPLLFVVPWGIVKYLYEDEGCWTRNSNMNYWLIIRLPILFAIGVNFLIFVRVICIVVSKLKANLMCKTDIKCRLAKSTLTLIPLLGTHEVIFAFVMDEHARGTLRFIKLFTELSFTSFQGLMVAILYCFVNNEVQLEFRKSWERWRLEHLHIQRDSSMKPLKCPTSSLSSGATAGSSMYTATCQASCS

GIP receptor = molecular target: T1, GIP receptor (Homo sapiens, UniProt P48546); test: HitHunter cAMP assay, GIP receptor; format: cell-based; conditions: CHO cells, cAMP; normalized to maximum signal from GIP (high) and DMSO (low); read-out: Emax GIP-1R
T1 sequence (P48546 22-466): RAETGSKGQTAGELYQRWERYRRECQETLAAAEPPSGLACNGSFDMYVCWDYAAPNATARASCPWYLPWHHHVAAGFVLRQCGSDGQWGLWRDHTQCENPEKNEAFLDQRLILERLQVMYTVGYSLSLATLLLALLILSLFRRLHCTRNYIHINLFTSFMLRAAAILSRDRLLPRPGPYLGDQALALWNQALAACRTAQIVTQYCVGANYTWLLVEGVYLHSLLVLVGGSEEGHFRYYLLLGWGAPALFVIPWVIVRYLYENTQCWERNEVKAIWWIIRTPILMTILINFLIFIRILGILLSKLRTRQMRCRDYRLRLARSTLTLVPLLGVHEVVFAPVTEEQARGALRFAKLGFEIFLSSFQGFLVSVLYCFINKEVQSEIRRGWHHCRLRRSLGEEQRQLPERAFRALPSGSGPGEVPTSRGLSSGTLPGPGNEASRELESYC

| SMILES | Emax (GLP-1 receptor) | Emax (GIP receptor) |
| --- | --- | --- |
| CC[C@H](C)[C@H](NC(=O)[C@H](CC(C)C)NC(=O)[C@H](Cc1c[nH]c2ccccc12)NC(=O)[C@H](CCC(N)=O)NC(=O)[C@@H](NC(=O)[C@H](Cc1ccccc1)NC(=O)[C@H](C)NC(=O)[C@H](CCCCNC(=O)COCCOCCNC(=O)COCCOCCNC(=O)CC[C@H](NC(=O)CCCCCCCCCCCCCCCCCCC(=O)O)C(=O)O)NC(=O)[C@H](CCC(N)=O)NC(=O)[C@H](C)NC(=O)[C@@H](NC(=O)[C@H](CCCCN)NC(=O)[C@H](CC(=O)O)NC(=O)[C@H](CC(C)C)NC(=O)C(C)(C)NC(=O)[C@@H](NC(=O)[C@H](CO)NC(=O)[C@H](Cc1ccc(O)cc1)NC(=O)[C@H](CC(=O)O)NC(=O)[C@H](CO)NC(=O)[C@@H](NC(=O)[C@](C)(Cc1ccccc1F)NC(=O)[C@@H](NC(=O)CNC(=O)[C@H](CCC(=O)O)NC(=O)CCNC(=O)C1(c2cccnc2)CCCC1)[C@@H](C)O)[C@@H](C)O)[C@@H](C)CC)[C@@H](C)CC)C(C)C)C(=O)N[C@@H](C)C(=O)NCC(N)=O [Compound 226] ({X60-βAla}-EGT[αMePhe(2-F)]TSDYSI[Aib]LDKIAQK([AEEA-AEEA-γGlu-C20 diacid])AFVQWLIAG-NH2; N-terminus and C-terminus assumed) | 104% | 102% |
| CC[C@H](C)[C@H](NC(=O)[C@H](CC(C)C)NC(=O)[C@H](Cc1c[nH]c2ccccc12)NC(=O)[C@H](CCC(N)=O)NC(=O)[C@@H](NC(=O)[C@H](Cc1ccccc1)NC(=O)[C@H](C)NC(=O)[C@H](CCCCNC(=O)COCCOCCNC(=O)COCCOCCNC(=O)CC[C@H](NC(=O)CCCCCCCCCCCCCCCCCCC(=O)O)C(=O)O)NC(=O)[C@H](CCC(N)=O)NC(=O)[C@H](C)NC(=O)[C@@H](NC(=O)[C@H](CCCCN)NC(=O)[C@H](CC(=O)O)NC(=O)[C@H](CC(C)C)NC(=O)C(C)(C)NC(=O)[C@@H](NC(=O)[C@H](CO)NC(=O)[C@H](Cc1ccc(O)cc1)NC(=O)[C@H](CC(=O)O)NC(=O)[C@H](CO)NC(=O)[C@@H](NC(=O)[C@H](Cc1ccccc1)NC(=O)[C@@H](NC(=O)CNC(=O)[C@H](CCC(=O)O)NC(=O)CCNC(=O)C1(c2cccnc2)CCCC1)[C@@H](C)O)[C@@H](C)O)[C@@H](C)CC)[C@@H](C)CC)C(C)C)C(=O)N[C@@H](C)C(=O)NCC(N)=O [Compound 227] ({X60-βAla}-EGTFTSDYSI[Aib]LDKIAQK([AEEA-AEEA-γGlu-C20 diacid])AFVQWLIAG-NH2; N-terminus and C-terminus assumed) | 102% | 112% |
| CC[C@H](C)[C@H](NC(=O)[C@H](CC(C)C)NC(=O)[C@H](Cc1c[nH]c2ccccc12)NC(=O)[C@H](CCC(N)=O)NC(=O)[C@@H](NC(=O)[C@H](Cc1ccccc1)NC(=O)[C@H](C)NC(=O)[C@H](CCCCNC(=O)COCCOCCNC(=O)COCCOCCNC(=O)CC[C@H](NC(=O)CCCCCCCCCCCCCCCCCCC(=O)O)C(=O)O)NC(=O)[C@H](CCC(N)=O)NC(=O)[C@H](C)NC(=O)[C@@H](NC(=O)[C@H](CCCCN)NC(=O)[C@H](CC(=O)O)NC(=O)[C@H](CC(C)C)NC(=O)C(C)(C)NC(=O)[C@@H](NC(=O)[C@H](CO)NC(=O)[C@H](Cc1ccc(O)cc1)NC(=O)[C@H](CC(=O)O)NC(=O)[C@H](CO)NC(=O)[C@@H](NC(=O)[C@](C)(Cc1ccccc1F)NC(=O)[C@@H](NC(=O)CNC(=O)[C@H](CCC(=O)O)NC(=O)CCNC(=O)C(C)(C)c1cc(F)cc(C#N)c1)[C@@H](C)O)[C@@H](C)O)[C@@H](C)CC)[C@@H](C)CC)C(C)C)C(=O)N[C@@H](C)C(=O)NCC(N)=O [Compound 228] ({Isobutyryl(2-(3-CN-5-F-Ph))-βAla}-EGT[αMePhe(2-F)]TSDYSI[Aib]LDKIAQK([AEEA-AEEA-γGlu-C20 diacid])AFVQWLIAG-NH2; N-terminus and C-terminus assumed) | 100% | 105% |
| CC[C@H](C)[C@H](NC(=O)[C@H](CC(C)C)NC(=O)[C@H](Cc1c[nH]c2ccccc12)NC(=O)[C@H](CCC(N)=O)NC(=O)[C@@H](NC(=O)[C@H](Cc1ccccc1)NC(=O)[C@H](C)NC(=O)[C@H](CCCCNC(=O)COCCOCCNC(=O)COCCOCCNC(=O)CC[C@H](NC(=O)CCCCCCCCCCCCCCCCCCC(=O)O)C(=O)O)NC(=O)[C@H](CCC(N)=O)NC(=O)[C@H](C)NC(=O)[C@@H](NC(=O)[C@H](CCCCN)NC(=O)[C@H](CC(=O)O)NC(=O)[C@H](CC(C)C)NC(=O)C(C)(C)NC(=O)[C@@H](NC(=O)[C@H](CO)NC(=O)[C@H](Cc1ccc(O)cc1)NC(=O)[C@H](CC(=O)O)NC(=O)[C@H](CO)NC(=O)[C@@H](NC(=O)[C@H](Cc1ccccc1)NC(=O)[C@@H](NC(=O)CNC(=O)[C@H](CCC(=O)O)NC(=O)CCNC(=O)C(C)(C)c1cc(F)cc(C#N)c1)[C@@H](C)O)[C@@H](C)O)[C@@H](C)CC)[C@@H](C)CC)C(C)C)C(=O)N[C@@H](C)C(=O)NCC(N)=O [Compound 229] ({Isobutyryl(2-(3-CN-5-F-Ph))-βAla}-EGTFTSDYSI[Aib]LDKIAQK([AEEA-AEEA-γGlu-C20 diacid])AFVQWLIAG-NH2; N-terminus and C-terminus assumed) | 102% | 107% |
| CC[C@H](C)[C@H](NC(=O)[C@H](CC(C)C)NC(=O)[C@H](Cc1c[nH]c2ccccc12)NC(=O)[C@H](CCC(N)=O)NC(=O)[C@@H](NC(=O)[C@H](Cc1ccccc1)NC(=O)[C@H](C)NC(=O)[C@H](CCCCNC(=O)COCCOCCNC(=O)COCCOCCNC(=O)CC[C@H](NC(=O)CCCCCCCCCCCCCCCCCCC(=O)O)C(=O)O)NC(=O)[C@H](CCC(N)=O)NC(=O)[C@H](C)NC(=O)[C@@H](NC(=O)[C@H](CCCNC(=N)N)NC(=O)[C@H](CC(=O)O)NC(=O)[C@H](CC(C)C)NC(=O)C(C)(C)NC(=O)[C@@H](NC(=O)[C@H](CO)NC(=O)[C@H](Cc1ccc(O)cc1)NC(=O)[C@H](CC(=O)O)NC(=O)[C@H](CO)NC(=O)[C@@H](NC(=O)[C@H](Cc1ccccc1)NC(=O)[C@@H](NC(=O)CNC(=O)[C@H](CCC(=O)O)NC(=O)CCNC(=O)C1(c2cccnc2)CCCC1)[C@@H](C)O)[C@@H](C)O)[C@@H](C)CC)[C@@H](C)CC)C(C)C)C(=O)N[C@@H](C)C(=O)NCC(=O)NCC(=O)N1CCC[C@H]1C(=O)N[C@@H](CO)C(=O)N[C@@H](CO)C(=O)NCC(=O)N[C@@H](C)C(=O)N1CCC[C@H]1C(=O)N1CCC[C@H]1C(=O)N1CCC[C@H]1C(=O)N[C@@H](CO)C(N)=O [Compound 243] ({X60-βAla}-EGTFTSDYSI[Aib]LDRIAQK([AEEA-AEEA-γGlu-C20 diacid])AFVQWLIAGGPSSGAPPPS-NH2; C-terminus assumed) | 109% | 110% |
| CC[C@H](C)[C@H](NC(=O)[C@H](CC(C)C)NC(=O)[C@H](Cc1c[nH]c2ccccc12)NC(=O)[C@H](CCC(N)=O)NC(=O)[C@@H](NC(=O)[C@H](Cc1ccccc1)NC(=O)[C@H](C)NC(=O)[C@H](CCCCNC(=O)COCCOCCNC(=O)COCCOCCNC(=O)CC[C@H](NC(=O)CCCCCCCCCCCCCCCCCCC(=O)O)C(=O)O)NC(=O)[C@H](CCC(N)=O)NC(=O)[C@H](C)NC(=O)[C@@H](NC(=O)[C@H](CCCCN)NC(=O)[C@H](CC(=O)O)NC(=O)[C@H](CC(C)C)NC(=O)C(C)(C)NC(=O)[C@@H](NC(=O)[C@H](CO)NC(=O)[C@H](Cc1ccc(O)cc1)NC(=O)[C@H](CC(=O)O)NC(=O)[C@H](CO)NC(=O)[C@@H](NC(=O)[C@H](Cc1ccccc1)NC(=O)[C@@H](NC(=O)CNC(=O)[C@H](CCC(=O)O)NC(=O)CCCNC(=O)C1(NC(=O)c2ccc(Cl)s2)CCC1)[C@@H](C)O)[C@@H](C)O)[C@@H](C)CC)[C@@H](C)CC)C(C)C)C(=O)N[C@@H](C)C(=O)NCC(=O)NCC(=O)N1CCC[C@H]1C(=O)N[C@@H](CO)C(=O)N[C@@H](CO)C(=O)NCC(=O)N[C@@H](C)C(=O)N1CCC[C@H]1C(=O)N1CCC[C@H]1C(=O)N1CCC[C@H]1C(=O)N[C@@H](CO)C(N)=O [Compound 244] ({2Thenoyl(5-Cl)}-[Ac4c][GABA]EGTFTSDYSI[Aib]LDKIAQK([AEEA-AEEA-γGlu-C20 diacid])AFVQWLIAGGPSSGAPPPS-NH2; C-terminus assumed) | 109% | 120% |
| CC[C@H](C)[C@H](NC(=O)[C@H](CC(C)C)NC(=O)[C@H](Cc1c[nH]c2ccccc12)NC(=O)[C@H](CCC(N)=O)NC(=O)[C@@H](NC(=O)[C@H](Cc1ccccc1)NC(=O)[C@H](C)NC(=O)[C@H](CCCCNC(=O)COCCOCCNC(=O)COCCOCCNC(=O)CC[C@H](NC(=O)CCCCCCCCCCCCCCCCCCC(=O)O)C(=O)O)NC(=O)[C@H](CCC(N)=O)NC(=O)[C@H](C)NC(=O)[C@@H](NC(=O)[C@H](CCCCN)NC(=O)[C@H](CC(=O)O)NC(=O)[C@H](CC(C)C)NC(=O)C(C)(C)NC(=O)[C@@H](NC(=O)[C@H](CO)NC(=O)[C@H](Cc1ccc(O)cc1)NC(=O)[C@H](CC(=O)O)NC(=O)[C@H](CO)NC(=O)[C@@H](NC(=O)[C@H](Cc1ccccc1)NC(=O)[C@@H](NC(=O)CNC(=O)[C@H](CCC(=O)O)NC(=O)CCNC(=O)C(C)(C)n1cc(Cl)cn1)[C@@H](C)O)[C@@H](C)O)[C@@H](C)CC)[C@@H](C)CC)C(C)C)C(=O)N[C@@H](C)C(=O)NCC(=O)NCC(=O)N1CCC[C@H]1C(=O)N[C@@H](CO)C(=O)N[C@@H](CO)C(=O)NCC(=O)N[C@@H](C)C(=O)N1CCC[C@H]1C(=O)N1CCC[C@H]1C(=O)N1CCC[C@H]1C(=O)N[C@@H](CO)C(N)=O [Compound 247] ({X40-βAla}-EGTFTSDYSI[Aib]LDKIAQK([AEEA-AEEA-γGlu-C20 diacid])AFVQWLIAGGPSSGAPPPS-NH2; C-terminus assumed) | 101% | 105% |
